# Measured values published in patent US7271187B2, “Compositions and methods for promoting tissue regeneration” (priority 2000, dated 2007).
# Entries after “also recorded” stand apart in the source; their conditions may differ.
# Columns and labels:
# [1] = test system: Fischer F344 female rats, spinal cord contusion injury; experiment: Spinal cord contusion injury, injection of bone marrow cells from treated donors into the cavity; format: in vivo, rat; conditions: recipients of bone marrow cells from donors given 100 mg/kg orally
# Description: In some embodiments of the invention, cells, preferably bone marrow cells, can be transferred from a first animal treated according to methods of the invention to a site of chronic spinal cord injury in the first animal or in a second animal.
# Fischer F344 female rats (Taconic, Germantown N.Y.) weighing 175-200 g were subjected to 25 mm weight drop contusion injury as previously described (Gruner J A, J. Neurotrauma, 1992 Summer; 9(2):123-8) with slight modifications. Briefly, under isoflurane anethesia, a laminectomy exposing the T8-9 spinal cord segment was performed and a rod weighing 10 g was dropped on the exposed cord from 25 mm height. The rod diameter at its end (where cord-rod interaction takes place) is 2.8 mm. A total of 12 rats were injured. Four animals were used as donor animals, eight as recipients. Two donor animals were administered N-[4-[(4-fluorophenyl)sulfonyl]phenyl]acetamide at a dose of 100 mg/kg orally, and two other animals were treated with vehicle (cyclodextrin, 45% in distilled sterile water). […]
# Doseage levels of with N-[4-[(4-fluorophenyl)sulfonyl]phenyl]acetamide was 100 mg/kg at 20 mg/ml. No difference in cavity size was detected comparing saline treated animals and animals treated with bone marrow cells from vehicle treated donors. […]
# [2] = test system: cortical neurons on aged astrocytes; experiment: Growth of cortical neurons on aged astrocytes, count of tubulin-positive neurons; format: cell-based, Sprague Dawley rat; conditions: 1 week after treatment; for Number of Neurons, Well 2 / Number of Neurons, Well 4: control 74; for Number of Neurons, Well 3: control 89; for Number of Neurons, mean: control 82.50
# Protocol: Astrocytes: postnatal day 2 (P2) Sprague Dawley rat cortices were aseptically dissected and trypsinized for 20 min at 37° C. in 0.25% trypsin-EDTA (GIBCO) and DNAse (0.2 mg/ml, Worthington). Enzyme action was stopped by the addition of soybean trypsin inhibitor (SIGMA)) and DNAse. Tissue was dissociated into single cell suspension by trituration with a 5 ml pipette, filtered though a 40 μm nylon filter and centrifuged at 500×g for 3 minutes. The pellet was taken up in medium (DMEM/10% fetal bovine serum) and cells were plated into poly-D-lysine (10 μg/ml, SIGMA) T75 flasks (one flask/cortex). After 23 days, astrocytes were trypsinized and replated at a density of 500,000 cells per well into poly-D-lysine-coated 24 well plates. Cultures were grown for an additional 20 days in order to let astrocytes mature. This maturation is known to make the astrocytes less permissive for neurite outgrowth (see G. M. Smith, et al., Developmental Biology, 138, 377-390 (1990), and G. M. Smith and J. Silver, Progress in Brain Research, Vol. 78, Chapt. 46, D. M. Cash and J. R. Sladek, ed., Elsevier, 1988.
# Cortical neurons: mixed cortical cells were dissociated from embryonic day 18 Sprague Dawley rat embryos as described for astrocytes. In order to obtain more pure neuonal cultures, cells were subjected to a differential adhesion by pre-plating them on a non-coated bacterial dish (100 mm diameter) for 1 hour. Non-neuronal cells stick to this plate while neurons stay in the supernatant. Neurons were added to the aged astrocytes at a density of 10,000 cells/well in DEME/10% fetal bovine serum. One day later, the cultures were treated with 1 μg/ml and 10 μg/ml of N-4[4-[(4-fluorophenyl)sulfonyl]phenyl]acetamide. 1 week after treatment, cultures were fixed and immunostained with monoclonal anti-tubulin antibody (SIGMA, 1:800 diluted), followed by rhodamine-conjugated goat-anti-mouse secondary (1:100 dilution). Tubulin labels axons and dentrites.
# Analysis: Tubulin-positive cell bodies with a process at least two cell diameters long were counted in 5 visual fields under 10× magnification with a Nikon Eclipse 2000 inverted microscope. Results were expressed as means of quadruplicate wells+/−SEM and are shown in Table I. Any patent application to which this application claims priority is incorporated by reference herein in its entirety.
structure (smiles),measurement,setting,value
CC(=O)Nc1ccc(S(=O)(=O)c2ccc(F)cc2)cc1 [N-[4-[(4-fluorophenyl)sulfonyl]phenyl]acetamide],cavity size at the injury site,"[1]; four weeks after cell injection, vs saline treated animals",decrease in cavity size at the injury site (approximately half the size)
same,Nestin immunoreactive cells at the edge of the injury cavity,"[1]; vs saline or vehicle treated donors, 100 mg/kg",Nestin immunoreactive cells are observed at the edge of the injury cavity; also recorded: significant increase in cells immunoreactive to nestin
same,"Number of Neurons, Well 2",[2]; 1 μg/ml,103
same,"Number of Neurons, Well 4",[2]; 1 μg/ml,176
same,"Number of Neurons, Well 3",[2]; 1 μg/ml,171
same,"Number of Neurons, Well 1","[2]; 1 μg/ml, control 93",132
same,"Number of Neurons, mean","[2]; 1 μg/ml, mean of quadruplicate wells",145.50
same,"Number of Neurons, Well 2",[2]; 10 μg/ml,129
same,"Number of Neurons, Well 4",[2]; 10 μg/ml,133
same,"Number of Neurons, Well 3",[2]; 10 μg/ml,173
same,"Number of Neurons, mean","[2]; 10 μg/ml, mean of wells",145.00
